The values that follow come from ChEMBL document CHEMBL5131471, “Design, synthesis and mechanism studies of novel dual PARP1/BRD4 inhibitors against pancreatic cancer” (Eur J Med Chem, 2022).

The source made the active and inactive calls. The calls are words filed in the database; no cut-off is given here.

The nature of data set [1]: Toxicity in nude mouse xenografted with human SW1990 cells assessed as heart damage at 15 mg/kg, ip administered for 28 days in presence of 45 mg/kg Olaparib by H and E staining based fluorescence microscopic analysis. The data set is classed as organism-based. The settings on record: in vivo, 672 h, time 28 day.
Data set [2] can be described thus: Toxicity in nude mouse xenografted with human SW1990 cells assessed as spleen damage at 15 mg/kg, ip administered for 28 days by H and E staining based fluorescence microscopic analysis. The data set is classed as organism-based. The settings on record: in vivo, 672 h, time 28 day.
A short description of data set [3]: Toxicity in nude mouse xenografted with human SW1990 cells assessed as lung damage at 15 mg/kg, ip administered for 28 days by H and E staining based fluorescence microscopic analysis. It counts as organism-based. The settings on record: in vivo, 672 h, time 28 day.
For data set [4], the system named is SW1990. The experiment in a line: Induction of apoptosis in human SW1990 cells assessed as necrotic cells at 4 uM measured after 4 days by Annexin V-FITC/propidium iodide staining based flow cytometry (reference value: 2.45%). It counts as functional. The settings on record: time 4 day.
Data set [5] has as its system SW1990. The experiment in a line: Induction of cell cycle arrest in human SW1990 cells assessed as accumulation of cells at S phase at 1 uM incubated for 4 days in presence of 3 uM Olaparib by propidium iodide staining based flow cytometry (reference value: 29.32%). The settings on record: time 4 day. The data set is classed as functional.
Data set [6] deals with SW1990. The experiment in a line: Induction of DNA damage in human SW1990 cells assessed as increase in tail DNA at 1 uM incubated for 4 days in presence of 3 uM Olaparib by comet assay. It counts as functional, cell-based. The settings on record: time 4.0 day.
Data set [7] relates to SW1990. The experiment in a line: Induction of DNA damage in human SW1990 cells assessed as increase in gammaH2AX expression at 1 uM incubated for 4 days in presence of Olaparib by DAPI staining based laser confocal microscopic analysis. The data set is classed as functional, cell-based. The settings on record: time 4.0 day.
Data set [8] deals with SW1990. The data set is described as follows: Effect on CDC25A gene expression in human SW1990 cells at 4 uM by Q-PCR analysis. It counts as functional, cell-based.
Data set [9] has as its system SW1990. The data set is described as follows: Effect on CDK1 gene expression in human SW1990 cells at 1 uM in presence of Olaparib by Q-PCR analysis. It counts as functional, cell-based.
Data set [10] concerns SW1990. The experiment in a line: Effect on BRCA2 gene expression in human SW1990 cells at 1 uM in presence of Olaparib by Q-PCR analysis. It counts as functional, cell-based.
Data set [11] deals with SW1990. The experiment in a line: Downregulation of Ki67 expression in human SW1990 cells at 15 mg/kg, ip measured after 28 days by immuno histochemical staining based fluorescence microscopic analysis. The data set is classed as functional, organism-based. The settings on record: time 28.0 day.
Data set [12] relates to Mus musculus. The data set is described as follows: Inhibition of BRD4 expression in nude mouse xenografted with human SW1900 cells at 30 mg/kg, ip administered for 28 days by Western blot analysis. It counts as functional, organism-based. The settings on record: time 28.0 day.
The test system of data set [13] is SW1990. The experiment in a line: Induction of apoptosis in human SW1990 cells assessed as necrotic cells at 1 uM measured after 4 days by Annexin V-FITC and propidium iodide staining based flow cytometry (reference value: 2.45%). It counts as functional. The settings on record: time 4 day.
Data set [14] concerns SW1990. The experiment in a line: Induction of cell cycle arrest in human SW1990 cells assessed as accumulation of cells at G0/G1 phase at 1 uM incubated for 4 days by propidium iodide staining based flow cytometry (reference value: 64.79%). It counts as functional. The settings on record: time 4 day.
For data set [15], the system named is SW1990. The experiment in a line: Induction of cell cycle arrest in human SW1990 cells assessed as accumulation of cells at G2/M phase at 2 uM incubated for 4 days by propidium iodide staining based flow cytometry (reference value: 5.89%). The data set is classed as functional. The settings on record: time 4 day.
Data set [16] deals with Mus musculus. The experiment in a line: Inhibition of CDC25B expression in nude mouse xenografted with human SW1990 cells at 30 mg/kg, ip measured after 4 days by Q-PCR analysis. The data set is classed as functional, organism-based. The settings on record: time 4.0 day.
Data set [17] has as its system Mus musculus. The data set is described as follows: Inhibition of CCNB1 expression in nude mouse xenografted with human SW1990 cells at 30 mg/kg, ip measured after 4 days by Western blot analysis. The settings on record: time 4.0 day. The data set is classed as functional, organism-based.
Data set [18] relates to Mus musculus. The experiment in a line: Inhibition of CDK1 expression in nude mouse xenografted with human SW1990 cells at 30 mg/kg, ip measured after 4 days by Western blot analysis. It counts as functional, organism-based. The settings on record: time 4.0 day.
The test system of data set [19] is SW1990. The data set is described as follows: Inhibition of homologous recombinant repair in human SW1990 cells assessed as reversal of Olaparib-induced TOPBP1 expression at 1 to 2 uM after 4 days by Western blot analysis. The data set is classed as functional, cell-based. The settings on record: dose 1-2 µM, time 4.0 day.
In data set [20] the test system is SW1990. The experiment in a line: Effect on c-Myc gene expression in human SW1990 cells at 1 to 2 uM by Q-PCR analysis. The settings on record: dose 1-2 µM. It counts as functional, cell-based.
Data set [21] has as its system SW1990. The experiment in a line: Effect on CCNB1 gene expression in human SW1990 cells at 1 to 2 uM by Q-PCR analysis. The data set is classed as functional, cell-based. The settings on record: dose 1-2 µM.
Data set [22] relates to SW1990. The experiment in a line: Effect on BRCA1 gene expression in human SW1990 cells at 1 to 2 uM by Q-PCR analysis. The data set is classed as functional, cell-based. The settings on record: dose 1-2 µM.
For data set [23], the system named is SW1990. The data set is described as follows: Effect on FOXM1 gene expression in human SW1990 cells at 1 to 2 uM by Q-PCR analysis. The data set is classed as functional, cell-based. The settings on record: dose 1-2 µM.
Data set [24] has as its system SW1990. The experiment in a line: Downregulation of Ki67 expression in human SW1990 cells at 30 mg/kg, ip measured after 28 days by immuno histochemical staining based fluorescence microscopic analysis. The settings on record: time 28.0 day. It counts as functional, organism-based.
The subject of data set [25] is SW1990. The data set is described as follows: Inhibition of CDK6 protein expression in human SW1990 cells at 1 to 2 uM measured after 4 days by Western blot analysis. The data set is classed as functional, cell-based. The settings on record: dose 1-2 µM, time 4.0 day.
A short description of data set [26]: Toxicity in nude mouse xenografted with human SW1990 cells assessed as lung damage at 45 mg/kg, ip administered for 28 days by H and E staining based fluorescence microscopic analysis. The settings on record: in vivo, 672 h, time 28 day. It counts as organism-based.
Data set [27] concerns SW1990. The data set is described as follows: Induction of apoptosis in human SW1990 cells assessed as necrotic cells at 6 uM measured after 4 days by Annexin V-FITC and propidium iodide staining based flow cytometry (reference value: 2.45%). The settings on record: time 4 day. The data set is classed as functional.
The test system of data set [28] is SW1990. The data set is described as follows: Upregulation of E2F2 expression in human SW1990 cells at 6 uM measured after 4 days by Western blot analysis. The data set is classed as functional, cell-based. The settings on record: time 4.0 day.
Data set [29] relates to Mus musculus. The data set is described as follows: Upregulation of CDK6 expression in nude mouse xenografted with human SW1990 cells at 45 mg/kg, ip measured after 4 days by Western blot analysis. The settings on record: time 4.0 day. It counts as functional, organism-based.
The test system of data set [30] is SW1990. The data set is described as follows: Induction of DNA damage in human SW1990 cells assessed as increase in tail DNA at 6 uM incubated for 4 days by comet assay. The data set is classed as functional, cell-based. The settings on record: time 4.0 day.
Data set [31] concerns SW1990. The data set is described as follows: Effect on c-Myc gene expression in human SW1990 cells at 6 uM by Q-PCR analysis. It counts as functional, cell-based.
For data set [32], the system named is SW1990. The experiment in a line: Effect on CDC25A gene expression in human SW1990 cells at 6 uM by Q-PCR analysis. The data set is classed as functional, cell-based.
Data set [33] has as its system SW1990. The data set is described as follows: Effect on CDK6 gene expression in human SW1990 cells at 6 uM by Q-PCR analysis. The data set is classed as functional, cell-based.
For data set [34], the system named is SW1990. The experiment in a line: Effect on CCND1 gene expression in human SW1990 cells at 6 uM by Q-PCR analysis. It counts as functional, cell-based.
Data set [35] deals with SW1990. The experiment in a line: Effect on BRCA2 gene expression in human SW1990 cells at 6 uM by Q-PCR analysis. The data set is classed as functional, cell-based.
In data set [36] the test system is SW1990. The experiment in a line: Effect on FOXO1 gene expression in human SW1990 cells at 6 uM by Q-PCR analysis. The data set is classed as functional, cell-based.
Data set [37] relates to SW1990. The experiment in a line: Upregulation of CCND1 expression in human SW1990 cells at 6 uM measured after 4 days by Western blot analysis. The data set is classed as functional, cell-based. The settings on record: time 4.0 day.
Data set [38] concerns SW1990. The experiment in a line: Induction of BRCA2 accumulation in nucleus of human SW1990 cells at 6 uM measured after 4 days by Western blot analysis. It counts as functional, cell-based. The settings on record: time 4.0 day.
The test system of data set [39] is Mus musculus. The experiment in a line: Upregulation of […] expression in nude mouse xenografted with human SW1990 cells at 45 mg/kg, ip measured after 28 days by DAPI staining based laser confocal microscopic analysis. The data set is classed as functional, organism-based. The settings on record: time 28.0 day.

As to `Cc1sc2c(c1C)C(c1ccc(Cl)cc1)=N[C@@H](CC(=O)OC(C)(C)C)c1nnc(C)n1-2`, the Activity entry in [1] is listed as “Non-Toxic”; in [2], “Non-Toxic”; in data set [3] it was “Non-Toxic”; in the data set with SW1990 [4], 3.35%; in the data set on SW1990 [5] it was 19.33%. Moreover, the outcome with SW1990 [6], with SW1990 [7], with SW1990 [8], in the data set with SW1990 [9], in the data set on SW1990 [10] and with SW1990 [11] was Active.
As for `Cc1noc(C)c1-c1ccc2c(c1)C(c1ccccc1)N(Cc1nc3c(C(N)=O)cccc3[nH]1)C(=O)N2C` (centres undefined), the inhibition result in the data set with Mus musculus [12], in the data set with Mus musculus [16], with Mus musculus [17], in the data set with Mus musculus [18], in the data set on SW1990 [19] and in the data set on SW1990 [25] was “Active” throughout. Further, the values for the Activity with SW1990 [13], with SW1990 [14] and with SW1990 [15] were 3.62%, 74.9% and 12.83%, respectively. Also, the outcome with SW1990 [20], in the data set on SW1990 [21], in the data set with SW1990 [22], in the data set on SW1990 [23] and in the data set with SW1990 [24] was Active.
Take `O=C(c1cc(Cc2n[nH]c(=O)c3ccccc23)ccc1F)N1CCN(C(=O)C2CC2)CC1` [OLAPARIB]: the values for the Activity result (in [26]; with SW1990 [27]) were “Non-Toxic” and 1.66%, respectively. Moreover, the result with SW1990 [28], with Mus musculus [29], in the data set on SW1990 [30], in the data set on SW1990 [31], in the data set on SW1990 [32] and with SW1990 [33] was Active. Also, the outcome with SW1990 [34], in the data set on SW1990 [35], in the data set with SW1990 [36], in the data set with SW1990 [37], with SW1990 [38] and with Mus musculus [39] was Active.
